Experimental data: patent publication US20230135093A1, “TRIAZOLYL DERIVATIVES AS GABA A ALPHA5 PAM” (Hoffmann-La Roche Inc., priority 2020, published 2023)

Legend:
h-GABA-A α5β3γ2 [1] = target: T1, h-GABA-A α5β3γ2 (Homo sapiens, UniProt P18507+P31644); experiment: [3H]flumazenil competition binding assay on membranes of HEK293 cells expressing GABAA receptors; settings: Table 1; displacement of [3H]-Flumazenil (0.5 nM), HEK293 cells expressing human receptors, means of two determinations
T1 construct: expressed in transfected cells; host or cells: Xenopus laevis oocytes, micro-injected with subunit RNA
Summary of the method: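 Membranes from HEK293 cells transiently expressing human α5β3γ2 were incubated 1 h at 4 °C in Krebs-tris pH 7.5 with 0.5 nM [3H]flumazenil and test compound. Nonspecific binding was set with 10^−5 M diazepam. Bound radioactivity was filtered and counted. Ki is the mean of two determinations.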

h-GABA-A α5β3γ2 [2] = target: T1, h-GABA-A α5β3γ2; experiment: Two-electrode voltage clamp electrophysiology in Xenopus oocytes expressing GABAA receptors (modulation of GABA EC20 current); format: cell-based; settings: Table 1; for Efficacy (GABA) %: % modulation of GABA EC20 = 100*(Fold increase-1); for Fold increase h-GABA-A α5β3γ2 oocyte: Xenopus oocytes, GABA EC20, test compound at approximatively 30 fold its Ki
Summary of the method: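 Oocytes injected with α5β3γ2 subunit RNA, recorded 3-5 days later by two-electrode clamp at −80 mV, room temperature, pH 7.4. The compound, at ~30-fold its Ki, was co-applied during a second GABA EC20 pulse. Efficacy was the extremum of the point-by-point second/first current ratio, given as % modulation (100×(fold−1)); n≥3 oocytes.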

COc1cc(-c2cnn(Cc3c(-c4ccc(Cl)cc4F)nnn3C)c(=O)c2)ccn1 [Example 63, 2-((5-(4-chloro-2-fluoro-phenyl)-3-methyl-triazol-4-yl)methyl)-5-(2-methoxy-4-pyridyl)pyridazin-3-one]
Ki (h-GABA-A α5β3γ2 [1]): 2.2 nM | Efficacy (GABA) % (h-GABA-A α5β3γ2 [2]): 42% | Fold increase h-GABA-A α5β3γ2 oocyte (h-GABA-A α5β3γ2 [2]): 1.42

Cn1nnc(-c2ccc(Cl)cc2F)c1Cn1ncc(N2CC(OC3CCC3)C2)cc1=O [Example 49, 2-((5-(4-chloro-2-fluoro-phenyl)-3-methyl-triazol-4-yl)methyl)-5-(3-(cyclobutoxy)azetidin-1-yl)pyridazin-3-one]
Ki (h-GABA-A α5β3γ2 [1]): 8.3 nM | Efficacy (GABA) % (h-GABA-A α5β3γ2 [2]): 73% | Fold increase h-GABA-A α5β3γ2 oocyte (h-GABA-A α5β3γ2 [2]): 1.73

Cn1nnc(-c2ncc(C(F)(F)F)cn2)c1Cn1ncc(N2CC(OC3CCC3)C2)cc1=O [Example 117, 5-[3-(cyclo-butoxy)azetidin-1-yl]-2-[[3-methyl-5-[5-(trifluoromethyl)pyrimidin-2-yl]triazol-4-yl]methyl]pyridazin-3-one]
Ki (h-GABA-A α5β3γ2 [1]): 52.7 nM | Efficacy (GABA) % (h-GABA-A α5β3γ2 [2]): 87% | Fold increase h-GABA-A α5β3γ2 oocyte (h-GABA-A α5β3γ2 [2]): 1.87

Cn1nnc(-c2ccc(Cl)cc2F)c1Cn1ncc(N2CC(Oc3ccnc(Cl)c3)C2)cc1=O [Example 55, 2-[[5-(4-chloro-2-fluoro-phenyl)-3-methyl-triazol-4-yl]methyl]-5-[3-[(2-chloro-4-pyridyl)oxy]azetidin-1-yl]pyridazin-3-one]
Ki (h-GABA-A α5β3γ2 [1]): 5.8 nM | Efficacy (GABA) % (h-GABA-A α5β3γ2 [2]): 111% | Fold increase h-GABA-A α5β3γ2 oocyte (h-GABA-A α5β3γ2 [2]): 2.11

Cc1ccc(-c2nnn(C)c2Cn2ncc(N3C[C@H](C)O[C@@H](C)C3)cc2=O)cn1 (racemic) [Example 12, 2-[[3-methyl-5-(6-methyl-3-pyridyl)triazol-4-yl]methyl]-5-[rac-(2S,6S)-2,6-dimethylmorpholin-4-yl]pyridazin-3-one]
Ki (h-GABA-A α5β3γ2 [1]): 2.6 nM | Efficacy (GABA) % (h-GABA-A α5β3γ2 [2]): 191% | Fold increase h-GABA-A α5β3γ2 oocyte (h-GABA-A α5β3γ2 [2]): 2.91

COc1ncc(-c2cnn(Cc3c(-c4ccc(C)nn4)nnn3C)c(=O)c2)cc1Cl [Example 114, 5-(5-chloro-6-methoxy-3-pyridyl)-2-[[3-methyl-5-(6-methylpyridazin-3-yl)triazol-4-yl]methyl]pyridazin-3-one]
Ki (h-GABA-A α5β3γ2 [1]): 3.6 nM | Efficacy (GABA) % (h-GABA-A α5β3γ2 [2]): 154%

COc1ncc(-c2cnn(Cc3c(-c4ncc(C(F)(F)F)cn4)nnn3C)c(=O)c2)cc1Cl [Example 118, 5-(5-chloro-6-methoxypyridin-3-yl)-2-((1-methyl-4-(5-(trifluoromethyl)pyrimidin-2-yl)-1H-1,2,3-triazol-5-yl)methyl)pyridazin-3(2H)-one]
Ki (h-GABA-A α5β3γ2 [1]): 15.4 nM | Efficacy (GABA) % (h-GABA-A α5β3γ2 [2]): 135% | Fold increase h-GABA-A α5β3γ2 oocyte (h-GABA-A α5β3γ2 [2]): 2.35

COc1ncc(-c2cnn(Cc3c(-c4ccc(C(F)(F)F)nn4)nnn3C)c(=O)c2)cc1Cl [Example 123, 5-(5-chloro-6-methoxypyridin-3-yl)-2-((1-methyl-4-(6-(trifluoro-methyl)pyridazin-3-yl)-1H-1,2,3-triazol-5-yl)methyl)pyridazin-3(2H)-one]
Ki (h-GABA-A α5β3γ2 [1]): 7.6 nM | Efficacy (GABA) % (h-GABA-A α5β3γ2 [2]): 148% | Fold increase h-GABA-A α5β3γ2 oocyte (h-GABA-A α5β3γ2 [2]): 2.48

Cc1ccc(-n2nnc(C)c2Cn2ncc(N3CCC[C@H]3C)cc2=O)cn1 [Example 25, 2-[[5-methyl-3-(6-methyl-3-pyridyl)triazol-4-yl]methyl]-5-[(2R)-2-methylpyrrolidin-1-yl]pyridazin-3-one]
Ki (h-GABA-A α5β3γ2 [1]): 4.4 nM | Efficacy (GABA) % (h-GABA-A α5β3γ2 [2]): 97% | Fold increase h-GABA-A α5β3γ2 oocyte (h-GABA-A α5β3γ2 [2]): 1.97

C[C@@H]1CN(c2cnn(Cc3c(-c4ccc(Cl)nc4)nnn3C)c(=O)c2)C[C@H](C)O1 [Example 112, 2-[[5-(6-chloro-3-pyridyl)-3-methyl-triazol-4-yl]methyl]-5-[(2S,6R)-2,6-dimethylmorpholin-4-yl]pyridazin-3-one]
Ki (h-GABA-A α5β3γ2 [1]): 12.8 nM | Efficacy (GABA) % (h-GABA-A α5β3γ2 [2]): 228% | Fold increase h-GABA-A α5β3γ2 oocyte (h-GABA-A α5β3γ2 [2]): 3.28

Cc1nnn(-c2ccc(Cl)cc2F)c1Cn1ncc(N2CCOCC2)cc1=O [Example 4, 2-((3-(4-chloro-2-fluoro-phenyl)-5-methyl-triazol-4-yl)methyl)-5-morpholino-pyridazin-3-one]
Ki (h-GABA-A α5β3γ2 [1]): 15.6 nM | Efficacy (GABA) % (h-GABA-A α5β3γ2 [2]): 97% | Fold increase h-GABA-A α5β3γ2 oocyte (h-GABA-A α5β3γ2 [2]): 1.97

COc1cc(-c2cnn(Cc3c(-c4ccc(Cl)cc4F)nnn3C)c(=O)c2)cnc1Cl [Example 108, 2-((5-(4-chloro-2-fluoro-phenyl)-3-methyl-triazol-4-yl)methyl)-5-(6-chloro-5-metlioxy-3-pyridyl)pyridazin-3-one]
Ki (h-GABA-A α5β3γ2 [1]): 16.8 nM | Efficacy (GABA) % (h-GABA-A α5β3γ2 [2]): 46% | Fold increase h-GABA-A α5β3γ2 oocyte (h-GABA-A α5β3γ2 [2]): 1.46

COc1ncc(-c2cnn(Cc3c(-c4ccc(Cl)cc4F)nnn3C)c(=O)c2)cc1C [Example 104, 2-((5-(4-chloro-2-fluoro-phenyl)-3-methyl-triazol-4-yl)methyl)-5-(6-methoxy-5-methyl-3-pyridyl)pyridazin-3-one]
Ki (h-GABA-A α5β3γ2 [1]): 11.8 nM | Efficacy (GABA) % (h-GABA-A α5β3γ2 [2]): 158% | Fold increase h-GABA-A α5β3γ2 oocyte (h-GABA-A α5β3γ2 [2]): 2.58

CC(C)OC1CN(c2cnn(Cc3c(-c4ccc(Cl)cc4F)nnn3C)c(=O)c2)C1 [Example 48, 2-((5-(4-chloro-2-fluoro-phenyl)-3-methyl-triazol-4-yl)methyl)-5-(3-isopropoxyazetidin-1-yl)pyridazin-3-one]
Ki (h-GABA-A α5β3γ2 [1]): 8.5 nM | Efficacy (GABA) % (h-GABA-A α5β3γ2 [2]): 52% | Fold increase h-GABA-A α5β3γ2 oocyte (h-GABA-A α5β3γ2 [2]): 1.52

Cn1nnc(-c2ccc(Cl)cc2F)c1Cn1ncc(N2CC(Oc3cnccn3)C2)cc1=O [Example 73, 2-[[5-(4-chloro-2-fluoro-phenyl)-3-methyl-triazol-4-yl]methyl]-5-(3-pyrazin-2-yloxyazetidin-1-yl)pyridazin-3-one]
Ki (h-GABA-A α5β3γ2 [1]): 7.7 nM | Efficacy (GABA) % (h-GABA-A α5β3γ2 [2]): 90% | Fold increase h-GABA-A α5β3γ2 oocyte (h-GABA-A α5β3γ2 [2]): 1.9

Cc1nccc(OC2CN(c3cnn(Cc4c(-c5ccc(Cl)cc5F)nnn4C)c(=O)c3)C2)n1 [Example 99, 2-[[5-(4-chloro-2-fluoro-phenyl)-3-methyl-triazol-4-yl]methyl]-5-[3-(2-methylpyrimidin-4-yl)oxyazetidin-1-yl]pyridazin-3-one]
Ki (h-GABA-A α5β3γ2 [1]): 4.6 nM | Efficacy (GABA) % (h-GABA-A α5β3γ2 [2]): 86% | Fold increase h-GABA-A α5β3γ2 oocyte (h-GABA-A α5β3γ2 [2]): 1.86

Cn1nnc(-c2ncc(C(F)(F)F)cn2)c1Cn1ncc(N2CC(OCC(F)F)C2)cc1=O [Example 119, 5-[3-(2,2-difluoro-ethoxy)azetidin-1-yl]-2-[[3-methyl-5-[5-(trifluoromethyl)pyrimidin-2-yl]triazol-4-yl]methyl]pyridazin-3-one]
Ki (h-GABA-A α5β3γ2 [1]): 29.6 nM | Efficacy (GABA) % (h-GABA-A α5β3γ2 [2]): 86% | Fold increase h-GABA-A α5β3γ2 oocyte (h-GABA-A α5β3γ2 [2]): 1.86

Cn1nnc(-c2ccc(Cl)cc2F)c1Cn1ncc(N2CCOCC2)cc1=O [Example 16, 2-[[5-(4-chloro-2-fluoro-phenyl)-3-methyl-triazol-4-yl]methyl]-5-morpholino-pyridazin-3-one]
Ki (h-GABA-A α5β3γ2 [1]): 2.2 nM | Efficacy (GABA) % (h-GABA-A α5β3γ2 [2]): 81% | Fold increase h-GABA-A α5β3γ2 oocyte (h-GABA-A α5β3γ2 [2]): 1.81

Cn1nnc(-c2ccc(Cl)cc2F)c1Cn1ncc(N2CC(OC(C)(C)C)C2)cc1=O [Example 96, 5-(3-tert-butoxyazetidin-1-yl)-2-[[5-(4-chloro-2-fluoro-phenyl)-3-methyl-triazol-4-yl]methyl]pyridazin-3-one]
Ki (h-GABA-A α5β3γ2 [1]): 20.4 nM | Efficacy (GABA) % (h-GABA-A α5β3γ2 [2]): 54% | Fold increase h-GABA-A α5β3γ2 oocyte (h-GABA-A α5β3γ2 [2]): 1.54

Cc1nnn(-c2ccc(Cl)cc2F)c1Cn1ncc(N2CCC(n3ccnc3C)CC2)cc1=O [Example 38, 2-[[3-(4-chloro-2-fluoro-phenyl)-5-methyl-triazol-4-yl]methyl]-5-[4-(2-methylimidazol-1-yl)-1-piperidyl]pyridazin-3-one]
Ki (h-GABA-A α5β3γ2 [1]): 5.6 nM | Efficacy (GABA) % (h-GABA-A α5β3γ2 [2]): 78% | Fold increase h-GABA-A α5β3γ2 oocyte (h-GABA-A α5β3γ2 [2]): 1.78

Cc1ccc(-c2nnn(C)c2Cn2ncc(N3C[C@@H](C)O[C@@H](C)C3)cc2=O)cn1 [Example 2, 5-(cis-2,6-dimethylmorpholin-4-yl)-2-((3-methyl-5-(6-methylpyridin-3-yl)triazol-4-yl)methyl)pyridazin-3-one]
Ki (h-GABA-A α5β3γ2 [1]): 4.7 nM | Efficacy (GABA) % (h-GABA-A α5β3γ2 [2]): 230%

Cn1nnc(-c2ccc(Cl)cc2F)c1Cn1ncc(N2CC(Oc3ccccn3)C2)cc1=O [Example 43, 2-((5-(4-chloro-2-fluoro-phenyl)-3-methyl-triazol-4-yl)methyl)-5-(3-(2-pyridyl-oxy)azetidin-1-yl)pyridazin-3-one]
Ki (h-GABA-A α5β3γ2 [1]): 7.9 nM | Efficacy (GABA) % (h-GABA-A α5β3γ2 [2]): 97% | Fold increase h-GABA-A α5β3γ2 oocyte (h-GABA-A α5β3γ2 [2]): 1.97

Cn1nnc(-c2ccc(C(F)(F)F)cc2F)c1Cn1ncc(N2CC(Oc3cccnn3)C2)cc1=O [Example 83, 2-[[5-[2-fluoro-4-(trifluoromethyl)phenyl]-3-methyl-triazol-4-yl]methyl]-5-(3-pyridazin-3-yloxyazetidin-1-yl)pyridazin-3-one]
Ki (h-GABA-A α5β3γ2 [1]): 14.7 nM | Efficacy (GABA) % (h-GABA-A α5β3γ2 [2]): 108% | Fold increase h-GABA-A α5β3γ2 oocyte (h-GABA-A α5β3γ2 [2]): 2.08
